ChEMBL document CHEMBL3351253, “Sterol fatty acid esters from the mushroom Hericium erinaceum and their PPAR transactivational effects” (J Nat Prod, 2014)

Key:
Assay type in all cases: cell-based
[1] = target: T1, Peroxisome proliferator-activated receptor (Homo sapiens, UniProt P37231+Q07869+Q03181); assay: (§1) Transactivation of PPAR transfected in human HepG2 cells after 20 hrs by PPAR-luciferase assay
T1 sequence (P37231 whole entry): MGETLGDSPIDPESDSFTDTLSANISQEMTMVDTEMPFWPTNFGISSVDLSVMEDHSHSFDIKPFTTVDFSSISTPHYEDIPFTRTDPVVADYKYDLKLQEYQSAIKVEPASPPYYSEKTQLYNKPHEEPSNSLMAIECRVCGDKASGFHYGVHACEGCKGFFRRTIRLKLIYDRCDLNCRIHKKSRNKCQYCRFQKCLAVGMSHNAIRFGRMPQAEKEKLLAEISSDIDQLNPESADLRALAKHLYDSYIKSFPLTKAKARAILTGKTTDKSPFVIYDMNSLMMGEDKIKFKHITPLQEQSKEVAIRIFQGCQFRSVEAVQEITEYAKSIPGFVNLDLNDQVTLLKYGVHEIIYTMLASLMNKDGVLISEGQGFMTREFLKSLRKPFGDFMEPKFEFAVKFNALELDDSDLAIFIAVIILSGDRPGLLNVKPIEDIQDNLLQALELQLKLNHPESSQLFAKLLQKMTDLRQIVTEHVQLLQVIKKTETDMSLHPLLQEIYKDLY
T1 sequence (Q07869 whole entry): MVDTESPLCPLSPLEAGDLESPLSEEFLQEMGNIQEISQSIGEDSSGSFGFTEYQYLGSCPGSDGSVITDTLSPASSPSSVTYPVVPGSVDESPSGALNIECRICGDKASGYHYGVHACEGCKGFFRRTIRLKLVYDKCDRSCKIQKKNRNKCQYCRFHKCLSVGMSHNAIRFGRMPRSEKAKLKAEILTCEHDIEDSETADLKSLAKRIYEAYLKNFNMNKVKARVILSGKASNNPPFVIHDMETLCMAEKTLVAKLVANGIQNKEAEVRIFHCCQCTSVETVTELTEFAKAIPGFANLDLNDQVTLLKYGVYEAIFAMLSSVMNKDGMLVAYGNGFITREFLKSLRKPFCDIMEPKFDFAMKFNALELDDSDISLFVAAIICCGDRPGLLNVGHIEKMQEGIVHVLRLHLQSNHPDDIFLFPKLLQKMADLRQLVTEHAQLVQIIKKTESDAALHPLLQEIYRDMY
T1 sequence (Q03181 whole entry): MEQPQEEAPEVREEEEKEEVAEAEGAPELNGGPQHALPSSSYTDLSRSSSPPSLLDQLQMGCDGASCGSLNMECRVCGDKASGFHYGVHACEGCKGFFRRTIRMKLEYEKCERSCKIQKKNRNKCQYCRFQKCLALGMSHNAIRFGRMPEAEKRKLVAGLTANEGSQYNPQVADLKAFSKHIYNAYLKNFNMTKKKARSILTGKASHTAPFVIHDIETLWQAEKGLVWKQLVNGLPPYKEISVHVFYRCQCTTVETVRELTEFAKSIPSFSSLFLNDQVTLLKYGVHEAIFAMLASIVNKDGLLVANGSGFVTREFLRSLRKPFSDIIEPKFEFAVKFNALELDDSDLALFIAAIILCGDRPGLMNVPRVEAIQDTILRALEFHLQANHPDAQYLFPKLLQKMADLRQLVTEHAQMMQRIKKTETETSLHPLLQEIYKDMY

HepG2 = assay: Cytotoxicity against human HepG2 cells assessed as CCK8 after 24 hrs; conditions: hepg2, 24 h
[2] = target: T2, Peroxisome proliferator-activated receptor alpha (Homo sapiens) (UniProt Q07869); assay: Transactivation of human Gal4-PPARalpha LBD transfected in human HepG2 cells assessed as stimulation at 20 uM after 20 hrs by luciferase reporter gene assay relative to vehicle-treated control
T2 sequence (whole entry): T1 sequence (Q07869 whole entry)

[3] = target: Peroxisome proliferator-activated receptor (Homo sapiens) (UniProt P37231+Q07869+Q03181); assay: as §1
[4] = target: T3, Peroxisome proliferator-activated receptor delta (Homo sapiens) (UniProt Q03181); assay: Transactivation of human Gal4-PPARbeta/delta LBD transfected in human HepG2 cells assessed as stimulation at 20 uM after 20 hrs by luciferase reporter gene assay relative to vehicle-treated control
T3 sequence (whole entry): T1 sequence (Q03181 whole entry)

[5] = target: T3, Peroxisome proliferator-activated receptor delta (Homo sapiens); assay: Transactivation of human Gal4-PPARbeta/delta LBD transfected in human HepG2 cells assessed as stimulation at 5 uM after 20 hrs by luciferase reporter gene assay relative to vehicle-treated control
[6] = target: T4, Peroxisome proliferator-activated receptor gamma (Homo sapiens) (UniProt P37231); assay: Transactivation of human Gal4-PPARgamma LBD transfected in human HepG2 cells assessed as stimulation at 5 uM after 20 hrs by luciferase reporter gene assay relative to vehicle-treated control
T4 sequence (whole entry): T1 sequence (P37231 whole entry)

[7] = target: T4, Peroxisome proliferator-activated receptor gamma (Homo sapiens); assay: Transactivation of human Gal4-PPARgamma LBD transfected in human HepG2 cells assessed as stimulation at 10 uM after 20 hrs by luciferase reporter gene assay relative to vehicle-treated control
[8] = target: T2, Peroxisome proliferator-activated receptor alpha (Homo sapiens); assay: Transactivation of human Gal4-PPARalpha LBD transfected in human HepG2 cells assessed as stimulation at 10 uM after 20 hrs by luciferase reporter gene assay relative to vehicle-treated control
[9] = target: T2, Peroxisome proliferator-activated receptor alpha (Homo sapiens); assay: Transactivation of human Gal4-PPARalpha LBD transfected in human HepG2 cells assessed as stimulation at 5 uM after 20 hrs by luciferase reporter gene assay relative to vehicle-treated control
[10] = target: T4, Peroxisome proliferator-activated receptor gamma (Homo sapiens); assay: Transactivation of human Gal4-PPARgamma LBD transfected in human HepG2 cells assessed as stimulation at 20 uM after 20 hrs by luciferase reporter gene assay relative to vehicle-treated control
[11] = target: T3, Peroxisome proliferator-activated receptor delta (Homo sapiens); assay: Transactivation of human Gal4-PPARbeta/delta LBD transfected in human HepG2 cells assessed as stimulation at 10 uM after 20 hrs by luciferase reporter gene assay relative to vehicle-treated control
[12] = target: T2, Peroxisome proliferator-activated receptor alpha (Homo sapiens); assay: Transactivation of human Gal4-PPARalpha LBD transfected in human HepG2 cells assessed as stimulation at 1 uM after 20 hrs by luciferase reporter gene assay relative to vehicle-treated control
[13] = target: T3, Peroxisome proliferator-activated receptor delta (Homo sapiens); assay: Transactivation of human Gal4-PPARbeta/delta LBD transfected in human HepG2 cells assessed as stimulation at 1 uM after 20 hrs by luciferase reporter gene assay relative to vehicle-treated control

Row | SMILES | EC50 [1] [µM] | Activity (HepG2) | other results
1 | CCCCCCCCCCCCCCCCCC(=O)O[C@H]1CC[C@@]2(C)C(=CC=C3[C@@H]4CC[C@H]([C@H](C)/C=C/[C@H](C)C(C)C)[C@@]4(C)CC[C@@H]32)C1 | > 50 | Non-toxic | –
2 | CCCCC/C=C\C/C=C\CCCCCCCC(=O)O[C@H]1C=C2[C@@H]3CC[C@H]([C@H](C)/C=C/[C@H](C)C(C)C)[C@@]3(C)CC[C@@H]2[C@@]2(C)CC[C@H](O)C[C@]12O | > 50 | Non-toxic | –
3 | CCCCC/C=C\C/C=C\CCCCCCCC(=O)O[C@H]1C2=C3CC[C@H]([C@H](C)/C=C/[C@H](C)C(C)C)[C@@]3(C)CC[C@@H]2[C@@]2(C)CC[C@H](O)C[C@@]23O[C@@H]13 | 6.4 | Non-toxic | Activity [2]: 386%; Activity [3]: Dose-dependent effect; Activity [4]: 121%; Activity [5]: 99.6%; Activity [6]: 129%; Activity [7]: 156%; Activity [8]: 346%; Activity [9]: 309%; Activity [10]: 162%; Activity [11]: 111%
4 | CCCCC/C=C\C/C=C\CCCCCCCC(=O)O[C@H]1CC[C@]2(C)[C@@]3(O)CC[C@]4(C)[C@@H]([C@H](C)/C=C/[C@H](C)C(C)C)CC[C@H]4C3=C[C@H](O)[C@@]2(O)C1 | 22.3 | Non-toxic | –
5 | CCCCCCCC/C=C\CCCCCCCC(=O)O[C@H]1C=C2[C@@H]3CC[C@H]([C@H](C)/C=C/[C@H](C)C(C)C)[C@@]3(C)CC[C@@H]2[C@@]2(C)CC[C@H](O)C[C@]12O | > 50 | Non-toxic | –
6 | CCCCCCCC/C=C\CCCCCCCC(=O)O[C@H]1C2=C3CC[C@H]([C@H](C)/C=C/[C@H](C)C(C)C)[C@@]3(C)CC[C@@H]2[C@@]2(C)CC[C@H](O)C[C@@]23O[C@@H]13 | 8.2 | Non-toxic | Activity [2]: 314%; Activity [3]: Dose-dependent effect; Activity [4]: 112%; Activity [5]: 100%; Activity [6]: 114%; Activity [7]: 125%; Activity [8]: 297%; Activity [9]: 289%; Activity [10]: 133%; Activity [11]: 102%
7 | CC(C)(Oc1ccc(C2CC2(Cl)Cl)cc1)C(=O)O (centres undefined) | – | – | Activity [12]: 311%
8 | CCCc1c(OCCCOc2ccc(OCC(=O)O)cc2)ccc(C(C)=O)c1O | – | – | Activity [13]: 288%
9 | CCCCCCCCCCCCCCCC(=O)O[C@H]1CC[C@@]2(C)C(=CC=C3[C@@H]4CC[C@H]([C@H](C)/C=C/[C@H](C)C(C)C)[C@@]4(C)CC[C@@H]32)C1 | > 50 | Non-toxic | –

Further lines, with some results ahead:

Row | EC50 [1] [µM] | SMILES | Activity (HepG2) | other results
10 | 20.6 | CCCCCCCCCCCCCCCCCC(=O)O[C@H]1CC[C@]2(C)[C@H]3CC[C@]4(C)[C@@H]([C@H](C)/C=C/[C@H](C)C(C)C)CC[C@H]4C3=C[C@H](O)[C@@]2(O)C1 | Non-toxic | –
11 | > 50 | CC/C=C\C/C=C\C/C=C\CCCCCCCC(=O)O[C@@H]1C=C2[C@@H]3CC[C@H]([C@H](C)/C=C/[C@H](C)C(C)C)[C@@]3(C)CC[C@@H]2[C@@]2(C)CC[C@H](O)C[C@]12O | Non-toxic | –
12 | 18.7 | CCCCC/C=C\C/C=C\CCCCCCCC(=O)O[C@H]1CC[C@]2(C)[C@H]3CC[C@]4(C)[C@@H]([C@H](C)/C=C/[C@H](C)C(C)C)CC[C@H]4C3=C[C@H](O)[C@@]2(O)C1 | Non-toxic | –
13 | > 50 | CCCCCCCCCCCCCCCC(=O)O[C@H]1C=C2[C@@H]3CC[C@H]([C@H](C)/C=C/[C@H](C)C(C)C)[C@@]3(C)CC[C@@H]2[C@@]2(C)CC[C@H](O)C[C@]12O | Non-toxic | –
